# Data reported in US20210238170A1, “5,5-Difluoro- and 5-Fluoro-5-Methyl-C-Glycoside Derivatives Useful As Dual SGLT1 / SGLT2 Modulators” (Janssen Pharmaceutica NV, priority 2018, published 2021).
# Key:
# human SGLT1 = biological target: T1, human SGLT1 (Homo sapiens, UniProt P13866); test: SGLT1 in vitro assay: Na-dependent 14C-AMG uptake in CHO-K1 cells stably expressing human SGLT1; format: cell-based; details: CHO-K1 cells stably expressing human SGLT1, 14C-AMG uptake; for inhibition at 0.3 µM: read-out: SGLT1 % Inh @ 0.3 μM; for IC50: compounds of formula (I) where R0 is fluoro
# T1 construct: expressed in transfected cells
# T1 sequence (P13866 1-664): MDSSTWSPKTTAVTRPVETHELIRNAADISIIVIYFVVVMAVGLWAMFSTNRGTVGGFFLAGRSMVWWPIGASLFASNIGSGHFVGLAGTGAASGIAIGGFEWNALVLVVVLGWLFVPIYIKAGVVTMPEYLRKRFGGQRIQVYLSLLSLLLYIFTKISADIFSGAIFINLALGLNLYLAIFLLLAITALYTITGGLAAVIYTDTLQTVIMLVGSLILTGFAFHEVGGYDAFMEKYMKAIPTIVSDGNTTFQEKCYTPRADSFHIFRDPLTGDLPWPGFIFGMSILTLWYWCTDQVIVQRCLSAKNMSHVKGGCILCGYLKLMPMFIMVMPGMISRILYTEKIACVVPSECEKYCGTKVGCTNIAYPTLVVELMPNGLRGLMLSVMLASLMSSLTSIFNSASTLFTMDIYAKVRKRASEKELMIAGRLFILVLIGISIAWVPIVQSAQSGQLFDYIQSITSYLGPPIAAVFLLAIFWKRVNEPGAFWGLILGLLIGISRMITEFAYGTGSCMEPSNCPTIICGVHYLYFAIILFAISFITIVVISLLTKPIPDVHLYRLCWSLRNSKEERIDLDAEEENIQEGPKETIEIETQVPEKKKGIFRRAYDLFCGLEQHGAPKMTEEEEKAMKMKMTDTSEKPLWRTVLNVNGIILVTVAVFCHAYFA
# Outline: (§1)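 CHO-K1 cells stably expressing human SGLT1 or SGLT2, induced with 10 mM Na-butyrate for 24 h. Compounds (0.001–10 μM) in Na+-containing HEPES/Tris buffer pH 7.4 were applied for 10 min, then 14C-AMG ([…]) for 2 h at 37°C; Na-dependent uptake read by scintillation; %-inhibition or IC50.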
# human SGLT2 = biological target: T2, human SGLT2 (Homo sapiens, UniProt P31639); test: SGLT2 in vitro assay: Na-dependent 14C-AMG uptake in CHO-K1 cells stably expressing human SGLT2; format: cell-based; details: CHO-K1 cells stably expressing human SGLT2, 14C-AMG uptake; for inhibition at 0.3 µM: read-out: SGLT2 % Inh @ 0.3 μM; for IC50: compounds of formula (I) where R0 is fluoro
# T2 construct: expressed in transfected cells
# T2 sequence (P31639 1-672): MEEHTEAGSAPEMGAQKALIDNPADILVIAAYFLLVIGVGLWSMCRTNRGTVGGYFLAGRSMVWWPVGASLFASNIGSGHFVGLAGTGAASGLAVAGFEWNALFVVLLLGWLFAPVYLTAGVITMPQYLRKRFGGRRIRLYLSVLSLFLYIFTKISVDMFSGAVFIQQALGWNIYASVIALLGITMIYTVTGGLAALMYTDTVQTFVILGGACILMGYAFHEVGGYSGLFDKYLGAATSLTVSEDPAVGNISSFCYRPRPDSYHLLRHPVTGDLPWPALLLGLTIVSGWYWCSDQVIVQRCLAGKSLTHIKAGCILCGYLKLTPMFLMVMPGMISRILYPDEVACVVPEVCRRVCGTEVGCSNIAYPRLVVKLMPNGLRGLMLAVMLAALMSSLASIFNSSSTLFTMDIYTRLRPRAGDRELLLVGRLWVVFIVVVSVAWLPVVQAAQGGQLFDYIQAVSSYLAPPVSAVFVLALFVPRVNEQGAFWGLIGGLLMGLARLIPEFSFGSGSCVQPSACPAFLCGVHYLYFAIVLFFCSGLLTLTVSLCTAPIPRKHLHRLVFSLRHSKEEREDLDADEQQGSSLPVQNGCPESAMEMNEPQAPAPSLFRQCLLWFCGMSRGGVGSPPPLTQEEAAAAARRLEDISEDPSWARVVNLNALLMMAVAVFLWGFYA
# Outline: as §1
SMILES,inhibition at 0.3 µM (human SGLT1) [%],IC50 (human SGLT1) [nM],inhibition at 0.3 µM (human SGLT2) [%],IC50 (human SGLT2) [nM],SGLT1 % Inh @ 0.3 μM (human SGLT1) [%],SGLT2 % Inh @ 0.3 μM (human SGLT2) [%]
COc1cc(OC)c([C@@H]2O[C@H](CO)C(F)(F)[C@H](O)[C@H]2O)cc1Cc1ccc(OCF)cc1 [Compound 147],,,,,26.5,64.7
COc1cc(OC)c([C@@H]2O[C@H](CO)C(F)(F)[C@H](O)[C@H]2O)cc1Cc1ccc(OC(F)(F)F)cc1 [Compound 121],,,,,20.2,63.6
COc1c(Cc2ccc3c(c2)CCCO3)cc([C@@H]2O[C@H](CO)C(F)(F)[C@H](O)[C@H]2O)c2c1CCO2 [Compound 93],,,,,34.5,80.4
Cc1ccc([C@@H]2O[C@H](CO)C(F)(F)[C@H](O)[C@H]2O)cc1Cc1cc2c(s1)CCN(C(=O)c1nccs1)C2 [Compound 79],,,,,20.3,63.6
OC[C@H]1O[C@@H](c2cc(Cc3ccc(OCF)cc3)c(C3CC3)cc2O)[C@H](O)[C@@H](O)C1(F)F [Compound 143],,,,,72.3,62.9
CCc1cc(O)c([C@@H]2OC3(CC3)C(F)(F)[C@H](O)[C@H]2O)cc1Cc1ccc2c(c1)OCCO2 [Compound 94],73,66,87.8,16.4,,
Cc1cnc(C(=O)N2CCc3sc(Cc4cc([C@@H]5O[C@H](CO)C(F)(F)[C@H](O)[C@H]5O)c(O)cc4C)cc3C2)s1 [Compound 83],43.3,449,85.4,9.7,,
Cc1cc(O)c([C@@H]2O[C@H](CO)C(F)(F)[C@H](O)[C@H]2O)cc1Cc1cc2c(s1)CCN(C(=O)C1CCCC1)C2 [Compound 69],,,,,64.0,67.1
COc1ccc(Cc2ccc(O)c([C@@H]3O[C@H](CO)C(F)(F)[C@H](O)[C@H]3O)c2)cc1 [Compound 86],,,,,17.4,69.5
Cc1cc(O)c([C@@H]2O[C@H](CO)C(F)(F)[C@H](O)[C@H]2O)cc1Cc1cc2cc(F)ccc2s1 [Compound 52],41.3,229,81.2,19,,
COc1c([C@@H]2O[C@H](CO)C(F)(F)[C@H](O)[C@H]2O)cc(Cc2ccc3c(c2)OCCO3)c2c1CCO2 [Compound 76],44.3,302,84.4,5,,
COc1cc(O)c([C@@H]2O[C@H](CO)C(F)(F)[C@H](O)[C@H]2O)cc1Cc1ccc(OC(F)(F)F)cc1 [Compound 119],,,,,24.9,79.0
Cc1ccc(Cc2cc([C@@H]3O[C@H](CO)C(F)(F)[C@H](O)[C@H]3O)c(O)cc2C)cc1F [Compound 177],79.6,13,87.8,3.1,,
Cc1cc(O)c([C@@H]2O[C@H](CO)C(F)(F)[C@H](O)[C@H]2O)cc1Cc1ccc(-c2cccc(F)n2)s1 [Compound 70],61.2,120,76.2,2.7,,

# The remaining lines, values ahead:
inhibition at 0.3 µM (human SGLT1) [%],IC50 (human SGLT1) [nM],inhibition at 0.3 µM (human SGLT2) [%],IC50 (human SGLT2) [nM],SGLT1 % Inh @ 0.3 μM (human SGLT1) [%],SGLT2 % Inh @ 0.3 μM (human SGLT2) [%],SMILES
64.4,96,88.6,2.7,,,"CCc1ccc(Cc2cc([C@@H]3O[C@H](CO)C(F)(F)[C@H](O)[C@H]3O)c(O)cc2C)cc1 [Compound 131, (2S,3R,4R,6R)-2-(5-(4-ethylbenzyl)-2-hydroxy-4-methylphenyl)-5,5-difluoro-6-(hydroxymethyl)tetrahydro-2H-pyran-3,4-diol]"
,,,,16.5,88.0,CCc1ccc(Cc2cc([C@@H]3O[C@H](CO)C(F)(F)[C@H](O)[C@H]3O)c(OC)cc2Cl)cc1 [Compound 135]
,,,,36.8,81.9,CCc1ccc(Cc2cc([C@@H]3O[C@H](CO)C(F)(F)[C@H](O)[C@H]3O)cc3c2OCC3)cc1 [Compound 58]
67.6,142,89.2,2.6,,,"CCc1ccc(Cc2cc([C@@H]3O[C@H](CO)C(F)(F)[C@H](O)[C@H]3O)c(O)cc2Cl)cc1 [Compound 127, (2S,3R,4R,6R)-2-{4-chloro-5-[(4-ethylphenyl)methyl]-2-hydroxyphenyl}-5,5-difluoro-6-(hydroxymethyl)oxane-3,4-diol]"
40.3,836,76.7,1.9,,,COc1cc(C)c(Cc2ccc(OCF)cc2)cc1[C@@H]1O[C@H](CO)C(F)(F)[C@H](O)[C@H]1O [Compound 138]
,,,,22.9,83.7,CCc1ccc(Cc2cc([C@@H]3O[C@H](CO)C(F)(F)[C@H](O)[C@H]3O)c(OC)cc2CC)cc1 [Compound 130]
,,,,41.9,76.8,OC[C@H]1O[C@@H](c2cc3c(c(Cc4ccc(OCF)cc4)c2)OCC3)[C@H](O)[C@@H](O)C1(F)F [Compound 146]
,,,,50.4,52.5,CCc1ccc(Cc2cc([C@@H]3O[C@H](CO)C(F)(F)[C@H](O)[C@H]3O)c(O)cc2C2CC2)cc1 [Compound 137]
79.5,120,88.7,7.7,,,CCc1ccc(Cc2cc([C@@H]3O[C@H](CO)C(F)(F)[C@H](O)[C@H]3O)c(O)cc2CC)cc1 [Compound 128]
67.7,153,90.6,1.3,,,Cc1cc(O)c([C@@H]2O[C@H](CO)C(F)(F)[C@H](O)[C@H]2O)cc1Cc1ccc(OCF)cc1 [Compound 133]
52,105,90.6,1.7,,,COc1cc(Cl)c(Cc2ccc(C)cc2)cc1[C@@H]1O[C@H](CO)C(F)(F)[C@H](O)[C@H]1O [Compound 176]
,,,,30.6,75.0,COc1cc(OC)c([C@@H]2O[C@H](CO)C(F)(F)[C@H](O)[C@H]2O)cc1Cc1ccc(C2CC2)cc1 [Compound 144]
78.8,95,82.8,44.9,,,OC[C@H]1O[C@@H](c2cc(Cc3ccc(C4CC4)cc3)c(C3CC3)cc2O)[C@H](O)[C@@H](O)C1(F)F [Compound 141]
